Legend:
[1] = Measurement of LogP values by HPLC on reversed phase columns (EEC directive 79/831 Annex V.A8), methods [a], [b], [c]; type: physicochemical; settings: HPLC on reversed phase column, method [a]; read-out: Log P
Method: Measurement of Log P values as provided herein was performed according to EEC directive 79/831 Annex V.A8 by HPLC (High Performance Liquid Chromatography) on reversed phase columns with the following methods: • ^[a]
If more than one Log P value is available within the same method, all the values are given and separated by “+”.
Lambda-max-values were determined using UV-spectra from 200 nm to 400 nm and the peak values of the chromatographic signals

[2] = tested on: Alternaria brassicae; assay: In vivo preventive test on Alternaria brassicae (leaf spot on radish or cabbage); settings: 144 h, 500 ppm of active ingredient, preventive spray on radish or cabbage, evaluated 6 days after inoculation, read-out: efficacy
Method: Example: In Vivo Preventive Test on Alternaria brassicae (Leaf Spot on Radish or Cabbage)
(§1) • Solvent: 5% by volume of Dimethyl sulfoxide • 10% by volume of Acetone • Emulsifier: 1 μl of Tween® 80 per mg of active ingredient
(§2) The active ingredients were made soluble and homogenized in a mixture of Dimethyl sulfoxide/Acetone//Tween®80 and then diluted in water to the desired concentration.
The young plants of radish or cabbage were treated by spraying the active ingredient prepared as described above. Control plants were treated only with an aqueous solution of Acetone/Dimethyl sulfoxide/Tween® 80.
After 24 hours, the plants were contaminated by spraying the leaves with an aqueous suspension of Alternaria brassicae spores. The contaminated radish or cabbage plants were incubated for 6 days at 20° C. and at 100% relative humidity.
The test was evaluated 6 days after the inoculation. 0% means an efficacy which corresponds to that of the control plants while an efficacy of 100% means that no disease was observed.

[3] = tested on: Botrytis cinerea; assay: In vivo preventive test on Botrytis cinerea (grey mould); settings: 500 ppm of active ingredient, preventive spray on gherkin or cabbage, evaluated 4 to 5 days after inoculation, read-out: efficacy
Method: Example: In Vivo Preventive Test on Botrytis cinerea (Grey Mould)
as §1, §2
The young plants of gherkin or cabbage were treated by spraying the active ingredient prepared as described above. Control plants were treated only with an aqueous solution of Acetone/Dimethyl sulfoxide/Tween® 80.
After 24 hours, the plants were contaminated by spraying the leaves with an aqueous suspension of Botrytis cinerea spores. The contaminated gherkin plants were incubated for 4 to 5 days at 17° C. and at 90% relative humidity. The contaminated cabbage plants were incubated for 4 to 5 days at 20° C. and at 100% relative humidity.
The test was evaluated 4 to 5 days after the inoculation. 0% means an efficacy which corresponds to that of the control plants while an efficacy of 100% means that no disease was observed.

[4] = tested on: Alternaria alternata; assay: Alternaria alternata in vitro cell test; type: cell-based; settings: 120 h, 20 ppm of active ingredient, liquid culture, 5 days incubation, read-out: efficacy (inhibition of fungal growth)
Method: (§3) Example: Alternaria alternata In Vitro Cell Test • Solvent: DMSO • Culture medium: 14.6 g anhydrous D-glucose (VWR), 7.1 g Mycological Peptone (Oxoid), 1.4 g granulated Yeast Extract (Merck), QSP 1 liter • Inoculum: spores suspension Fungicides were solubilized in DMSO and the solution used to prepare the required range of concentrations. The final concentration of DMSO used in the assay was ≤1%. A spore suspension of A. alternata was prepared and diluted to the desired spore density. Fungicides were evaluated for their ability to inhibit spore germination and mycelium growth in liquid culture assay. The compounds were added in the desired concentration to the culture medium with spores. After 5 days incubation, fungi-toxicity of compounds was determined by spectrometric measurement of mycelium growth. Inhibition of fungal growth was determined by comparing the absorbance values in wells containing the fungicides with the absorbance in control wells without fungicides.

[5] = tested on: Colletotrichum lindemuthianum; assay: Colletotrichum lindemuthianum in vitro cell test; type: cell-based; settings: 144 h, 20 ppm of active ingredient, liquid culture, 6 days incubation, read-out: efficacy (inhibition of fungal growth)
Method: as §3, with “Example: Colletotrichum lindemuthianum” for “Example: Alternaria alternata”, “of C. lindemuthianum” for “of A. alternata”, “inhibit spores” for “inhibit spore”, “After 6” for “After 5”

[6] = tested on: Septoria tritici; assay: Septoria tritici in vitro cell test; type: cell-based; settings: Zymoseptoria tritici, 168 h; 20 ppm of active ingredient; liquid culture, 7 days incubation; read-out: efficacy (inhibition of fungal growth)
Method: as §3, with “Example: Septoria tritici” for “Example: Alternaria alternata”, “g Bacteriological” for “g Mycological”, “(Oxoid), •” for “(Oxoid),”, “Inoculum: spore” for “Inoculum: spores”, “of Septoria tritici” for “of A. alternata”, “After 7” for “After 5”

[7] = tested on: Pyrenophora teres; assay: In vivo preventive test on Pyrenophora teres (net blotch on barley); settings: 240 h, 500 ppm of active ingredient, preventive spray on barley, evaluated 10 days after inoculation, read-out: efficacy
Method: Example: In Vivo Preventive Test on Pyrenophora teres (Net Blotch on Barley)
as §1, §2
The young plants of barley were treated by spraying the active ingredient prepared as described above. Control plants were treated only with an aqueous solution of Acetone/Dimethyl sulfoxide/Tween®80.
After 24 hours, the plants were contaminated by spraying the leaves with an aqueous suspension of Pyrenophora teres spores. The contaminated barley plants were incubated for 48 hours at 20° C. and at 100% relative humidity and then for 8 days at 20° C. and at 70-80% relative humidity.
The test was evaluated 10 days after the inoculation. 0% means an efficacy which corresponds to that of the control plants while an efficacy of 100% means that no disease was observed.

[8] = tested on: Sphaerotheca fuliginea; assay: In vivo preventive test on Sphaerotheca fuliginea (powdery mildew on cucurbits); settings: Podosphaera fuliginea, 192 h; 500 ppm of active ingredient; preventive spray on gherkin; evaluated 8 days after inoculation; read-out: efficacy
Method: Example: In Vivo Preventive Test on Sphaerotheca fuliginea (Powdery Mildew on Cucurbits)
as §1, §2
The young plants of gherkin were treated by spraying the active ingredient prepared as described above. Control plants were treated only with an aqueous solution of Acetone/Dimethyl sulfoxide/Tween® 80.
After 24 hours, the plants were contaminated by spraying the leaves with an aqueous suspension of Sphaerotheca fuliginea spores. The contaminated gherkin plants were incubated for 8 days at 20° C. and at 70-80% relative humidity.
The test was evaluated 8 days after the inoculation. 0% means an efficacy which corresponds to that of the control plants while an efficacy of 100% means that no disease was observed.

[9] = tested on: Colletotrichum lindemuthianum; assay: In vivo preventive test on Colletotrichum lindemuthianum (leaf spot on bean); settings: 168 h, 500 ppm of active ingredient, preventive spray on bean, evaluated 7 days after inoculation, read-out: efficacy
Method: Example: In Vivo Preventive Test on Colletotrichum lindemuthianum (Leaf Spot on Bean)
as §1, §2
The young plants of bean were treated by spraying the active ingredient prepared as described above. Control plants were treated only with an aqueous solution of Acetone/Dimethyl sulfoxide/Tween® 80.
After 24 hours, the plants were contaminated by spraying the leaves with an aqueous suspension of Colletotrichum lindemuthianum spores. The contaminated bean plants were incubated for 24 hours at 20° C. and at 100% relative humidity and then for 6 days at 20° C. and at 90% relative humidity.
The test was evaluated 7 days after the inoculation. 0% means an efficacy which corresponds to that of the control plants while an efficacy of 100% means that no disease was observed.

[10] = tested on: Septoria tritici; assay: In vivo preventive test on Septoria tritici (leaf spot on wheat); settings: Zymoseptoria tritici, in Triticum aestivum; 500 ppm of active ingredient; preventive spray on wheat; evaluated 19 days after inoculation; read-out: efficacy
Method: Example: In Vivo Preventive Test on Septoria tritici (Leaf Spot on Wheat)
as §1, §2
The young plants of wheat were treated by spraying the active ingredient prepared as described above. Control plants were treated only with an aqueous solution of Acetone/Dimethyl sulfoxide/Tween®80.
After 24 hours, the plants were contaminated by spraying the leaves with an aqueous suspension of Septoria tritici spores. The contaminated wheat plants were incubated for 72 hours at 17° C. and at 100% relative humidity and then for 15 days at 20° C. and at 90% relative humidity.
The test was evaluated 19 days after the inoculation. 0% means an efficacy which corresponds to that of the control plants while an efficacy of 100% means that no disease was observed.

| Structure (SMILES) | chromatographic logP [1] | pest or weed control at 500 ppm [2] | pest or weed control at 500 ppm [3] | inhibition at 20 ppm [4] | inhibition at 20 ppm [5] | inhibition at 20 ppm [6] | pest or weed control at 500 ppm [7] | pest or weed control at 500 ppm [8] | pest or weed control at 500 ppm [9] | pest or weed control at 500 ppm [10] |
| --- | --- | --- | --- | --- | --- | --- | --- | --- | --- | --- |
| FC(F)(F)c1cccc(Oc2nnc(Cl)cc2C2=NCC(Cc3ccc(Cl)cc3Cl)N2)c1 (racemic) [I-007, 6-chloro-4-[rac-5-[(2,4-dichlorophenyl)methyl]-4,5-dihydro-1H-imidazol-2-yl]-3-[3-(trifluoromethyl)phenoxy]pyridazine] | 2.39 | 90 to 100% | 90 to 100% | 90 to 100% | 90 to 100% | 90 to 100% | – | – | – | – |
| Cc1cc(C2=NOCC(c3cn(C)c4ccccc34)N2)c(Oc2cccc(C(F)(F)F)c2)nn1 (racemic) [I-011, rac-5-(1-methylindol-3-yl)-3-[6-methyl-3-[3-(trifluoro-methyl)phenoxy]pyridazin-4-yl]-5,6-dihydro-4H-1,2,4-oxadiazine] | 3.23 | 90 to 100% | 90 to 100% | 90 to 100% | 90 to 100% | 90 to 100% | 70 to 79% | 90 to 100% | 80 to 89% | – |
| CC(=O)c1cc(C2=NOCC(Cc3ccc(C)cc3C)N2)c(Oc2cccc(C(F)(F)F)c2)nn1 (racemic) [I-042, 1-[5-[rac-5-[(2,4-dimethylphenyl)methyl]-5,6-dihydro-4H-1,2,4-oxadiazin-3-yl]-6-[3-(trifluoromethyl)phenoxy]pyridazin-3-yl]ethanone] | 4.27 | 90 to 100% | 90 to 100% | 90 to 100% | 90 to 100% | – | 90 to 100% | 90 to 100% | 90 to 100% | 90 to 100% |
| Cc1ccc(CC2CON=C(c3cc(Cl)nnc3Oc3cccc(C(F)(F)F)c3)N2)c(C)c1 (racemic) [I-059, rac-3-[6-chloro-3-[3-(trifluoromethyl)phenoxy]pyridazin-4-yl]-5-[(2,4-dimethylphenyl)methyl]-5,6-dihydro-4H-1,2,4-oxadiazine] | – | 90 to 100% | 90 to 100% | 90 to 100% | 90 to 100% | 90 to 100% | 90 to 100% | 90 to 100% | 90 to 100% | 90 to 100% |
| Cc1ccc(CC2CON=C(c3c(Oc4cccc(C(F)(F)F)c4)nnc(Cl)c3-c3ccncc3)N2)c(C)c1 (racemic) [I-088, rac-3-[6-chloro-5-(4-pyridyl)-3-[3-(trifluoro-methyl)phenoxy]pyridazin-4-yl]-5-[(2,4-dimethylphenyl)methyl]-5,6-dihydro-4H-1,2,4-oxadiazine] | 3.76 | 90 to 100% | 90 to 100% | 90 to 100% | 90 to 100% | – | 90 to 100% | 90 to 100% | 90 to 100% | 70 to 79% |
| Cc1ccc(CC2CNN=C(c3cc(Cl)nnc3Oc3cccc(C(F)(F)F)c3)N2)c(C)c1 (racemic) [I-173, rac-3-[6-chloro-3-[3-(trifluoromethyl)phenoxy]pyridazin-4-yl]-5-[(2,4-dimethylphenyl)methyl]-1,4,5,6-tetrahydro-1,2,4-triazine] | 3.31 | 90 to 100% | 90 to 100% | 90 to 100% | 90 to 100% | – | 90 to 100% | 90 to 100% | 90 to 100% | – |
| FC(F)(F)c1cccc(Oc2nnc(Cl)cc2C2=NOC[C@H](Cc3ccccc3)N2)c1 (single isomer, unassigned) [I-070] | 3.81 | 90 to 100% | 90 to 100% | 90 to 100% | 90 to 100% | 80 to 89% | 90 to 100% | 90 to 100% | 90 to 100% | – |

From patent publication US12501900B2, “Heterocyclyl pyridazine as fungicidal compounds” (Bayer Aktiengesellschaft, priority 2018, dated 2025)
